Laboratory results published in patent publication US12600721B2, “TYK2 inhibitors and uses thereof” (Sudo Biosciences Limited, priority 2021, dated 2026).
Values belong to the compound of their own block, whether it stands above or below them.

Tests used:
TYK2 Pseudokinase (JH2) [1] = experiment: HEK-Blue IL-23 reporter assay (SEAP) for profiling TYK2 pseudokinase (JH2) inhibition; format: cell-based; conditions: HEK-Blue IL-23 cells, 10 ng/mL human recombinant IL-23, SEAP reporter; read-out: IL23 IC50 (TYK2 inhibitory activity)
Procedure: (§1) HEK-Blue™ IL-23 and IFNα/β cells with a stably-integrated cytokine receptor and STAT3 or STAT1 express STAT-inducible secreted embryonic alkaline phosphatase (SEAP) reporter gene upon cytokine stimulation. These cells are plated in DMEM (Gibco) containing 10% heat-inactivated FBS (Gibco) and 100 U/mL PenStrep (Gibco) at 37° C. under 5% CO2 conditions for 20-22 hours. The cells are then pretreated with serially diluted test compounds for 60 min prior to stimulation with either 10 ng/mL human recombinant IL-23 (Miltenyl Biotech) or 1 ng/mL human recombinant IFNα (InvivoGen) for 22-24 hours for IL-23 or 16-18 h for IFNα. SEAP induction is measured using the QUANTI Blue™ Solution (InvivoGen) according to the manufacturer's instructions.

[2] = tested on: HEK-Blue IFNγ reporter cells; experiment: HEK-Blue IFNγ reporter assay (SEAP) for determining selectivity; format: cell-based; conditions: 50 ng/ml human recombinant IFNγ, read-out: IFN-γ IC50 (SEAP selectivity)
Procedure: (§2) HEK-Blue™ IL-2 and IFNγ reporter cells with a stably-integrated cytokine receptor and STAT5 or STAT1 express STAT-inducible secreted embryonic alkaline phosphatase (SEAP) reporter gene upon cytokine stimulation. These cells were plated in DMEM (Gibco) containing 10% heat-inactivated FBS (Gibco) and 100 U/mL PenStrep (Gibco) at 37° C. under 5% CO2 conditions for 20-22 hours. The cells were then pretreated with serially diluted test compounds for 60 min prior to stimulation with either 4 ng/ml human recombinant IL-2 (Miltenyl Biotech) or 50 ng/ml human recombinant IFNγ (InvivoGen) for 24 hours. SEAP induction was measured using the QUANTI-Blue™ Solution (InvivoGen) according to the manufacturer's instructions.

TYK2-JH1 = biological target: T1, TYK2-JH1 (Homo sapiens, UniProt P29597); experiment: HTRF-based selectivity assay, TYK2 catalytic domain; format: biochemical; conditions: kinase domain (JH1), 20 μM ATP
T1 construct: using a recombinant purified His or GST-tagged catalytic domain for each enzyme; made in house
T1 sequence (P29597 897-1176 limits assumed): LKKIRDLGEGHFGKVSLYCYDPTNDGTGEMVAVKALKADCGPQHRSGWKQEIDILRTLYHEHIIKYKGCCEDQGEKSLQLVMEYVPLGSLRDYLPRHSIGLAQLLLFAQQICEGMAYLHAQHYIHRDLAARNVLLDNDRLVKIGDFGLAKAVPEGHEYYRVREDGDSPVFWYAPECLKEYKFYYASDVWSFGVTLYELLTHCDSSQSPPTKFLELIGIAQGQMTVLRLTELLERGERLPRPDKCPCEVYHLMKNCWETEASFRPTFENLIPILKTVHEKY
Procedure: (§3) The ability of compounds to inhibit the activity of JAK1, JAK2, JAK3 and TYK2 is measured using a recombinant purified His or GST-tagged catalytic domain for each enzyme (JAK1, JAK2 and TYK2 are generated in-house; JAK3 was purchased from Carna biosciences, Cat #08-046) in an HTRF format biochemical assay. The reactions employs a commercial peptide substrate from Cisbio (Cat #62TK0PEC). The basic assay protocol is as follows: first, 2.5 μL of diluted compounds (4×) in DMSO are dispensed into a 384-well Optiplate. Next, 2.5 μL of enzyme (final concentrations for enzymes are: TYK2-700 ng/mL, JAK1-80.6 ng/ml, JAK2-2.1 ng/ml and JAK3-171.8 ng/mL) is added and incubated at RT for 5-20 min. Finally, 5 μl of mixture of 2×ATP [Final concentration 20 μM for TYK2, 21.43 μM for JAK1, 14.7 μM for JAK2 and 2.12 μM for JAK3]+2× Substrate [Final concentration 217 nM for TYK2, 454.7 nM for JAK1, 200 nM for JAK2 and 257.4 nM for JAK3] is added to 384 well Optiplate. Composition of Kinase assay buffer used in the assay is as follows: HEPES 50 mM, EGTA 1 mM, MgCl2 10 mM, DTT 2 mM, Tween-20 0.01% and water. Then the plates are shaken and then incubated at 26.5° C. for 60 min.

JAK2-JH1 = biological target: T2, JAK2-JH1 (Homo sapiens, UniProt O60674); experiment: HTRF-based selectivity assay, JAK2 catalytic domain; format: biochemical; conditions: kinase domain (JH1), 14.7 μM ATP
T2 construct: using a recombinant purified His or GST-tagged catalytic domain for each enzyme; made in house
T2 sequence (O60674 849-1124 limits assumed): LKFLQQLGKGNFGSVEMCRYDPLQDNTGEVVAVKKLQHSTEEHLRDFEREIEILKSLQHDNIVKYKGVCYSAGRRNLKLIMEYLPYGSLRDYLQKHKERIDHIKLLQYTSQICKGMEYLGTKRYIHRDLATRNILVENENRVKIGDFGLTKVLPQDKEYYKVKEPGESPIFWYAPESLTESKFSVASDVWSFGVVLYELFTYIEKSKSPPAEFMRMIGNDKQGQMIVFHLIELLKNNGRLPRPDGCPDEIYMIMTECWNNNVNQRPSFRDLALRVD
Procedure: as §3

JAK1-JH1 = biological target: T3, JAK1-JH1 (Homo sapiens, UniProt P23458); experiment: HTRF-based selectivity assay, JAK1 catalytic domain; format: biochemical; conditions: kinase domain (JH1), 21.43 μM ATP
T3 construct: using a recombinant purified His or GST-tagged catalytic domain for each enzyme; made in house
T3 sequence (P23458 875-1153 limits assumed): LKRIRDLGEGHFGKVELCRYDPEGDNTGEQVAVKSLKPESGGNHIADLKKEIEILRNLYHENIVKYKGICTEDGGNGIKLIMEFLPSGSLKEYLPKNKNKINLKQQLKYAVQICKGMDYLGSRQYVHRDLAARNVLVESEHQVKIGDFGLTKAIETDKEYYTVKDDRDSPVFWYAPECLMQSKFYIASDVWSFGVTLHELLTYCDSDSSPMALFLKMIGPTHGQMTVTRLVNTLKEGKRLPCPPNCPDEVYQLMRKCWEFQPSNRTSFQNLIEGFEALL
Procedure: as §3

JAK3-JH1 = biological target: T4, JAK3-JH1 (Homo sapiens, UniProt P52333); experiment: HTRF-based selectivity assay, JAK3 catalytic domain; format: biochemical; conditions: kinase domain (JH1), 2.12 μM ATP
T4 construct: using a recombinant purified His or GST-tagged catalytic domain for each enzyme; purchased Carna biosciences 08-046
T4 sequence (P52333 822-1111 limits assumed): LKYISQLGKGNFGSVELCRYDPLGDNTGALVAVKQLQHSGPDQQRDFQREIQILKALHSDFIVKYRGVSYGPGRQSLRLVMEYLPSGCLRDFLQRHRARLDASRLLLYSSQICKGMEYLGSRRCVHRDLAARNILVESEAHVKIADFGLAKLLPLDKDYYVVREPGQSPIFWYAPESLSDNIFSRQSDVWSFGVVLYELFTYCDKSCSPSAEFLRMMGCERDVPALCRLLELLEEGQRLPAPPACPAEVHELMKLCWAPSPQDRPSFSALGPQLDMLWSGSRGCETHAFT
Procedure: as §3

TYK2 Pseudokinase (JH2) [3] = experiment: HEK-Blue IFNα/β reporter assay (SEAP) for profiling TYK2 pseudokinase (JH2) inhibition; format: cell-based; conditions: HEK-Blue IFNα/β cells, 1 ng/mL human recombinant IFNα, read-out: IFNα IC50 (TYK2 inhibitory activity)
Procedure: as §1

[4] = tested on: HEK-Blue IL-2 reporter cells; experiment: HEK-Blue IL-2 reporter assay (SEAP) for determining selectivity; format: cell-based; conditions: HEK-Blue IL-2 cells, 4 ng/ml human recombinant IL-2, SEAP reporter
Procedure: as §2

SMILES: [2H]C([2H])([2H])NC(=O)c1cnc(NC(=O)C2CC2)cc1Nc1cccc2c1N(C([2H])([2H])[2H])Cc1nccnc1-2 [Compound 17, 6-(cyclopropanecarboxamido)-N-(methyl-d3)-4-((6-(methyl-d3)-5,6-dihydropyrazino[2,3-c]quinolin-7-yl)amino)nicotinamide]
IC50 (TYK2 Pseudokinase (JH2) [1]): < 30 nM
IC50 [2]: 30 to 300 nM
IC50 (TYK2-JH1): > 1000 nM
IC50 (JAK2-JH1): > 1000 nM
IC50 (JAK1-JH1): > 1000 nM
IC50 (JAK3-JH1): > 1000 nM
IC50 (TYK2 Pseudokinase (JH2) [3]): < 30 nM
IC50 [4]: > 1000 nM

SMILES: [2H]C([2H])([2H])NC(=O)c1cnc(NC(=O)C2CC2)cc1Nc1cccc2c1N(C)Cc1nccnc1-2 [Compound 8, 6-(cyclopropanecarboxamido)-N-(methyl-d3)-4-((6-methyl-5,6-dihydropyrazino[2,3-c]quinolin-7-yl)amino)nicotinamide]
IC50 (TYK2 Pseudokinase (JH2) [1]): < 30 nM
IC50 [2]: 30 to 300 nM
IC50 (TYK2-JH1): > 1000 nM
IC50 (JAK2-JH1): > 1000 nM
IC50 (JAK1-JH1): > 1000 nM
IC50 (JAK3-JH1): > 1000 nM
IC50 (TYK2 Pseudokinase (JH2) [3]): < 30 nM
IC50 [4]: > 1000 nM

SMILES: [2H]C([2H])([2H])NC(=O)c1nnc(Nc2ccc(F)cn2)cc1Nc1cccc2c1N(C)Cc1cccnc1-2 [Compound 2, 6-((5-fluoropyridin-2-yl)amino)-N-(methyl-d3)-4-((6-methyl-5,6-dihydrobenzo[h][1,6]naphthyridin-7-yl)amino)pyridazine-3-carboxamide]
IC50 (TYK2 Pseudokinase (JH2) [1]): < 30 nM
IC50 [2]: > 1000 nM
IC50 (TYK2-JH1): > 1000 nM
IC50 (JAK2-JH1): > 1000 nM
IC50 (JAK1-JH1): > 1000 nM
IC50 (JAK3-JH1): > 1000 nM
IC50 (TYK2 Pseudokinase (JH2) [3]): < 30 nM
IC50 [4]: > 1000 nM

SMILES: [2H]C([2H])([2H])NC(=O)c1nnc(NC(=O)C2CC2)cc1Nc1cccc2c1N(C([2H])([2H])[2H])Cc1nccnc1-2 [Compound 18, 6-(cyclopropanecarboxamido)-N-(methyl-d3)-4-((6-(methyl-d3)-5,6-dihydropyrazino[2,3-c]quinolin-7-yl)amino)pyridazine-3-carboxamide]
IC50 (TYK2 Pseudokinase (JH2) [1]): < 30 nM
IC50 [2]: 30 to 300 nM
IC50 (TYK2-JH1): > 1000 nM
IC50 (JAK2-JH1): > 1000 nM
IC50 (JAK1-JH1): > 1000 nM
IC50 (JAK3-JH1): > 1000 nM
IC50 (TYK2 Pseudokinase (JH2) [3]): < 30 nM
IC50 [4]: 300 to 1000 nM

SMILES: [2H]C([2H])([2H])NC(=O)c1nnc(NC(=O)C2CC2)cc1Nc1cccc2c1N(C)Cc1cnn(C)c(=O)c1-2 [Compound 27, 6-(cyclopropanecarboxamido)-4-((2,6-dimethyl-1-oxo-1,2,5,6-tetrahydropyridazino[4,5-c]quinolin-7-yl)amino)-N-(methyl-d3)pyridazine-3-carboxamide]
IC50 (TYK2 Pseudokinase (JH2) [1]): < 30 nM
IC50 [2]: 30 to 300 nM
IC50 (TYK2-JH1): > 1000 nM
IC50 (JAK2-JH1): > 1000 nM
IC50 (JAK1-JH1): > 1000 nM
IC50 (JAK3-JH1): > 1000 nM
IC50 (TYK2 Pseudokinase (JH2) [3]): < 30 nM
IC50 [4]: 300 to 1000 nM

SMILES: [2H]C([2H])([2H])NC(=O)c1cnc(NC(=O)C2CC2)cc1Nc1cccc2c1N(C)Cc1cccnc1-2 [Compound 3, 6-(cyclopropanecarboxamido)-N-(methyl-d3)-4-((6-methyl-5,6-dihydrobenzo[h][1,6]naphthyridin-7-yl)amino)nicotinamide]
IC50 (TYK2 Pseudokinase (JH2) [1]): < 30 nM
IC50 [2]: > 1000 nM
IC50 (TYK2-JH1): > 1000 nM
IC50 (JAK2-JH1): > 1000 nM
IC50 (JAK1-JH1): > 1000 nM
IC50 (JAK3-JH1): > 1000 nM
IC50 (TYK2 Pseudokinase (JH2) [3]): < 30 nM
IC50 [4]: > 1000 nM

Continued, in another order:

IC50 (TYK2 Pseudokinase (JH2) [1]): < 30 nM
IC50 (TYK2-JH1): > 1000 nM
IC50 (JAK2-JH1): > 1000 nM
IC50 (JAK1-JH1): > 1000 nM
IC50 (JAK3-JH1): > 1000 nM
IC50 (TYK2 Pseudokinase (JH2) [3]): < 30 nM
SMILES: [2H]C([2H])([2H])NC(=O)c1nnc(NC(=O)C2CC2)cc1Nc1cccc2c1N(C)Cc1cccnc1-2 [Compound 1, 6-(cyclopropanecarboxamido)-N-(methyl-d3)-4-((6-methyl-5,6-dihydrobenzo[h][1,6]naphthyridin-7-yl)amino)pyridazine-3-carboxamide]
IC50 [2]: > 1000 nM
IC50 [4]: > 1000 nM

IC50 (TYK2 Pseudokinase (JH2) [1]): < 30 nM
IC50 (TYK2-JH1): > 1000 nM
IC50 (JAK2-JH1): > 1000 nM
IC50 (JAK1-JH1): > 1000 nM
IC50 (JAK3-JH1): > 1000 nM
IC50 (TYK2 Pseudokinase (JH2) [3]): 30 to 300 nM
SMILES: [2H]C([2H])([2H])NC(=O)c1nnc(NC(=O)C2CC2)cc1Nc1cccc2c1N(C)Cc1cc(F)cnc1-2 [Compound 7, 6-(cyclopropanecarboxamido)-4-((3-fluoro-6-methyl-5,6-dihydrobenzo[h][1,6]naphthyridin-7-yl)amino)-N-(methyl-d3)pyridazine-3-carboxamide]
IC50 [2]: 30 to 300 nM
IC50 [4]: 300 to 1000 nM

IC50 (TYK2 Pseudokinase (JH2) [1]): < 30 nM
IC50 (TYK2-JH1): > 1000 nM
IC50 (JAK2-JH1): > 1000 nM
IC50 (JAK1-JH1): 300 to 1000 nM
IC50 (JAK3-JH1): > 1000 nM
IC50 (TYK2 Pseudokinase (JH2) [3]): < 30 nM
SMILES: [2H]C([2H])([2H])NC(=O)c1nnc(NC(=O)C2CC2)cc1Nc1cccc2c1N(C)Cc1cncnc1-2 [Compound 6, 6-(cyclopropanecarboxamido)-N-(methyl-d3)-4-((6-methyl-5,6-dihydropyrimido[5,4-c]quinolin-7-yl)amino)pyridazine-3-carboxamide]
IC50 [2]: 30 to 300 nM
IC50 [4]: > 1000 nM
